Source: patent US20070004803A1, “Compounds and methods for use in treating neoplasia and cancer based upon inhibitors of isoprenylcysteine methyltransferase” (Purdue Research Foundation, priority 2003, published 2007)
pIC50, pKi: −log10 of the molar value.

Assays:
[1] = target: T1, Saccharomyces cerevisiae Icmt (Saccharomyces cerevisiae, UniProt P32584); experiment: In vitro vapor diffusion methyltransferase assay, AFC analogues as substrates; format: biochemical; conditions: Relative velocity (compared to AFC) at 125 μM; substrate ability
T1 construct: A 734 bp EagI-SacII fragment, which contained the gene STE14, was amplified from pSM187; made in house; host or cells: Saccharomyces cerevisiae strain CH2704 (plasmid pCHH10m3N-STE14 in the Ste14p-lacking strain SM1188); membrane fraction
T1 sequence (P32584 1-239): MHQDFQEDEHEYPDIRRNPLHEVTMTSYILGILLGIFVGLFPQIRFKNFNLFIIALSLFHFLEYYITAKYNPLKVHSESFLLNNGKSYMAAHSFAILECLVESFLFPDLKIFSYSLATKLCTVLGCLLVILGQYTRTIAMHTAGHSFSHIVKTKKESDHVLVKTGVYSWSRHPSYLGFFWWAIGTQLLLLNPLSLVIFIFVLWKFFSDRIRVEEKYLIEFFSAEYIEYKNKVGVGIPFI
Procedure: Previous studies in this laboratory have focused on the isoprenoid substrate specificity of FTase. […] These isoprenoid moieties were chosen in part because the corresponding FPP analogues are alternative substrates for FTase, and can thus be readily incorporated into peptides and proteins. The assays were performed using overexpressed, reconstituted recombinant Saccharomyces cerevisiae Icmt.
(§1) Isolation of Membrane Fraction from Yeast Cells—Mid-log phase yeast cells (2.0-3.0 OD600/mL), grown in SC-URA, media, were harvested by centrifugation at 3500×g for 10 minutes at 4° C., washed with 10 mM NaN3, and resuspended in lysis buffer (0.3 M sorbitol, 10 mM Tris-HCl pH 7.5, 0.1 M NaCl, 5 mM MgCl2, 1% aprotinin, 10 μg/mL leupeptin, 10 μg/in L pepstatin A, 10 μg/mL chymostatin, 10 μg/mL bestatin, 1 mM dithiothreitol, and 2 mM AEBSF) to a final concentration of 800 OD600/mL. After a 15 min incubation on ice, the cells were frozen and thawed twice in liquid N2. The cells were then lysed by passing the mixture twice through a French press. The resultant mixture was centrifuged at 500×g to remove whole cells and other particulate. The supernatant was then treated with 50 U/mL micrococcal nuclease followed by centrifugation at 150,000×g in a Beckman L5 50B centrifuge (45 Ti rotor) for 90 minutes at 4° C., to pellet the membrane fraction. The pellet was resuspended in lysis buffer containing 10% glycerol, aliquoted, and stored at −80° C. Membrane protein concentration was determined using Coomassie Plus Protein Assay Reagent (Pierce Biotechnology) according to the manufacturers instructions, and compared to a BSA standard curve prepared by the same procedure. Protein samples were analyzed by immunoblot analysis and in vitro vapor diffusion methyltransferase assay as described elsewhere.
(§2) In vitro vapor diffusion methyltransferase assay—Methyltrasferase assays were performed in a total volume of 60 μL and a final Tris-HCl concentration of 100 mM, pH 7.5. All reactions contained 20 μM S-adenosyl-[^14C-methyl]-methionine (SAM) and 5 μg of membrane protein from the His-Ste14p overexpressing strain CH2704. Substrate curves were generated by varying the amount of compound in each reaction. […] The 60 μL reactions were incubated at 30° C. for 30 minutes. The reaction was stopped with the addition of 50 μL of 1M NaOH/1% SDS. 100 μL of this mixture is then spotted on folded filter paper (5.5 cm×1.5 cm) and lodged in the neck of a scintillation vial containing 10 mL of scintillation fluid. Hydroxide ion forms a tetrahedral intermediate with the newly formed ^14C-methyl ester on the methyl acceptor. This intermediate then eliminates ^14C-methanol, which diffuses into the scintillation fluid below. The filters were pulled out after 2-3 hours, the vials were shaken well and counted in a liquid scintillation analyzer.

[2] = target: T1, Saccharomyces cerevisiae Icmt; experiment: In vitro vapor diffusion methyltransferase assay, inhibition of AFC methylation; format: biochemical; conditions: for Icmt inhibitory ability (in words): inhibition of AFC methylation; for pIC50: inhibition curves in the presence of 33 μM AFC
Procedure: Previous studies in this laboratory have focused on the isoprenoid substrate specificity of FTase. We have discovered analogues that are effective alternative substrates, and compounds that are potent inhibitors. […] In the initial study, six isoprenoid-modified analogues (2-7, Chart 1, below) of the minimal Icmt substrate AFC 1 were prepared and evaluated as substrates and as inhibitors of the enzyme. These isoprenoid moieties were chosen in part because the corresponding FPP analogues are alternative substrates for FTase, and can thus be readily incorporated into peptides and proteins. The assays were performed using overexpressed, reconstituted recombinant Saccharomyces cerevisiae Icmt.
as §1
as §2, with “reaction. Inhibition curves were generated by varying the amount of compound in each reaction while in the presence of 33 μM N-acetyl-S-farneslylcysteine (AFC).” for “reaction.”

| Compound | Icmt krel [1] | other results |
| --- | --- | --- |
| CC(=O)N[C@@H](CSCC=C(C)CCC=C(C)CCC=C(C)C)C(=O)O [Compound 1, N-acetyl-S-farneslylcysteine, reference compound] | 100 |  |
| CC(=O)N[C@@H](CSC/C=C(\CC=C(C)C)CC/C=C(\C)CCC=C(C)C)C(=O)O [Compound 3, N-Acetyl-S-(3-(3-methylbut-2-enyl)-7,11-dimethyldodeca-2(Z),6(E),10-trien-1-yl)-L-cysteine] | 5.9 | pKi ([2]; AFC(protein)-competitive inhibition of Icmt): 4.67; Icmt inhibitory ability (in words) [2]: low micromolar inhibitor of AFC methylation; mode of action ([2]; varying AFC at constant inhibitor concentration): AFC(protein)—competitive inhibitor of Icmt |
| CC(=O)N[C@@H](CSC/C=C(/C)CC/C=C(\C)CCC=C(C)C)C(=O)O [Compound 4, N-Acetyl-S-(3,7,11-trimethyldodeca-2(Z),6(E),10-trien-1-yl)-L-cysteine] | 62.0 |  |
| CCCCCCCCCC/C(C)=C/CSC[C@H](NC(C)=O)C(=O)O [Compound 6] | 24.2 |  |
| C=CCC(=CCSC[C@H](NC(C)=O)C(=O)O)CCC=C(C)CCC=C(C)C [Compound 8, N-Acetyl-S-(3-allyl-7,11-dimethyldodeca-2,6,10-triene-1-yl)-L-cysteine] | 18.6 |  |
| C=CCC/C(=C\CSC[C@H](NC(C)=O)C(=O)O)CC/C=C(\C)CCC=C(C)C [Compound 9, N-Acetyl-S-(3-(but-3-enyl)-7,11-dimethyldodeca-2Z,6E,10-trien-1-yl)-L-cysteine] | 35.4 |  |
| CC(=O)N[C@@H](CSC/C=C(\CC=C(C)C)CC/C=C(\C)CC/C=C(\C)CCC=C(C)C)C(=O)O [Compound 12, N-Acetyl-S-(3-(3-methylbut-2-enyl) 7,11,15-trimethylhexadeca-2Z,6E,10E,14-tetraen-1-yl)-L-cysteine] | 50.0 | pIC50 [2]: 3.89 |
| CC(=O)N[C@@H](CSC/C=C(\CC=C(C)C)CCc1ccc(-c2ccccc2)cc1)C(=O)O [Compound 14] | 0.70 | Icmt inhibitory ability (in words) [2]: moderately effective inhibitor of Icmt |

Second part, led by results:

| Icmt krel [1] | Compound | other results |
| --- | --- | --- |
| 19.1 | CC(=O)N[C@@H](CSC/C=C(\C)CC/C=C(/C)CCC=C(C)C)C(=O)O [Compound 5, N-Acetyl-S-(3,7,11-trimethyldodeca-2(E),6(Z),10-trien-1-yl)-L-cysteine] |  |
| 35.0 | CC(=O)N[C@@H](CSC/C=C(\C)CC/C=C(\CC=C(C)C)CCC=C(C)C)C(=O)O [Compound 10, N-Acetyl-S-(7-(3-methylbut-2-enyl)-3,11-dimethyldodeca-2Z,6E,10-trien-1-yl) -L-cysteine] |  |
| 16.3 | CC(=O)N[C@@H](CSC/C=C(\C)CC/C=C(\CC=C(C)C)CC/C=C(\C)CCC=C(C)C)C(=O)O [Compound 13, N-Acetyl-S-(7-(3-methylbut-2-enyl) 3,11,15-trimethylhexadeca-2Z,6E,10E,14-tetraen-1-yl)-L-cysteine] | pIC50 [2]: 3.89 |
